{
  "source": "patent US20160175306A1",
  "about": "“COMBINATION OF A IMIDAZOPYRIDAZINE DERIVATIVE AND A MITOTIC AGENT FOR THE TREATMENT OF CANCER” (BAYER PHARMA AKTIENGESELLSCHAFT, priority 2013, published 2016)",
  "key": {"[1]": {"test_system": "spindle assembly checkpoint in HeLa cells (phosphorylated histone H3 on serine 10)", "test": "Spindle Assembly Checkpoint Assay", "format": "cell-based", "settings": "Homo sapiens, nocodazole 0.1 μg/ml, 4 h with compound", "description": "The spindle assembly checkpoint assures the proper segregation of chromosomes during mitosis. Upon entry into mitosis, chromosomes begin to condensate which is accompanied by the phosphorylation of histone H3 on serine 10. Dephosphorylation of histone H3 on serine 10 begins in anaphase and ends at early telophase. Accordingly, phosphorylation of histone H3 on serine 10 can be utilized as a marker of cells in mitosis. Nocodazole is a microtubule destabilizing substance. Thus, nocodazole interferes with microtubule dynamics and mobilises the spindle assembly checkpoint. […] An inhibition of the spindle assembly checkpoint by Mps-1 inhibitors overrides the mitotic blockage in the presence of nocodazole, and the cells complete mitosis prematurely. This alteration is detected by the decrease of cells with phosphorylation of histone H3 on serine 10. This decline is used as a marker to determine the capability of compounds of the present invention to induce a mitotic breakthrough.\nCultivated cells of the human cervical tumour cell line HeLa (ATCC CCL-2) were plated at a density of 2500 cells/well in a 384-well microtiter plate in 20 μl Dulbeco's Medium (w/o phenol red, w/o sodium pyruvate, w […] glucose, w pyridoxine) supplemented with 1% (v/v) glutamine, 1% (v/v) penicillin, 1% (v/v) streptomycin and 10% (v/v) fetal calf serum. After incubation overnight at 37° C., 10 μl/well nocodazole at a final concentration of 0.1 μg/ml were added to cells. After 24 h incubation, cells were arrested at G2/M phase of the cell cycle progression. […] Images were acquired with a Perkin Elmer OPERA™ High-Content Analysis reader. Images were analyzed with image analysis software MetaXpress™ from Molecular devices utilizing the Cell Cycle application module. In this assay both labels HOECHST 33342 and phosphorylated Histone H3 on serine 10 were measured. […] The raw assay data were further analysed by four parameter logistic regression analysis to determine the IC50 value for each tested compound."}, "[2]": {"test_system": "A2780cis human ovarian cancer xenograft model", "settings": "for T/C weight: mean final tumor weight", "method": "In Vivo Anti-Tumor Efficacy of Mps-1 Kinase Inhibitors of the Present Invention in Combination with Paclitaxel in A2780cis Human Ovarian Cancer Model in Nude Mice\nThe effect of combination treatment of an Mps-1 kinase inhibitor of the present invention and paclitaxel was studied in the adaptive cisplatin-resistant and paclitaxel intrinsically resistant A2780cis xenograft model. […] Animal body weight and tumor size were determined three times weekly. Treatment for all groups started at a tumor size of 29 mm^2, at day 6 after tumor cell inoculation. […] At the end of the study after one final treatment plasma and tumors were sampled for PK analysis and final tumor weight was determined."}, "[3]": {"test_system": "NCI-H1299 human NSCLC xenograft model", "settings": "for T/C weight: mean final tumor weight", "description": "In Vivo Anti-Tumor Efficacy of Mps-1 Kinase Inhibitors of the Present Invention in Combination with Paclitaxel in NCI-H1299 Human NSCLC Model in Nude Mice\nThe effect of combination treatment of an Mps-1 kinase inhibitor of the present invention and paclitaxel was studied in the NCI-H1299 taxane intrinsically resistant human lung carcinoma (NSCLC) xenograft model in nude mice. […] Substances were formulated in optimal vehicles to achieve solutions. Animal body weight and tumor size were determined three times weekly. Treatment for all groups started at a tumor size of 30 mm^2, at day 8 after tumor cell inoculation. […] At the end of the study after one final treatment plasma and tumors were sampled for PK analysis and final tumor weight was determined."}, "[4]": {"target": "T1, human kinase Mps-1 (Homo sapiens, UniProt P33981)", "T1 construct": "N-terminally GST-tagged human full length recombinant Mps-1 kinase; purchased Invitrogen, Karslruhe, Germany PV4071", "T1 sequence (P33981 1-857)": "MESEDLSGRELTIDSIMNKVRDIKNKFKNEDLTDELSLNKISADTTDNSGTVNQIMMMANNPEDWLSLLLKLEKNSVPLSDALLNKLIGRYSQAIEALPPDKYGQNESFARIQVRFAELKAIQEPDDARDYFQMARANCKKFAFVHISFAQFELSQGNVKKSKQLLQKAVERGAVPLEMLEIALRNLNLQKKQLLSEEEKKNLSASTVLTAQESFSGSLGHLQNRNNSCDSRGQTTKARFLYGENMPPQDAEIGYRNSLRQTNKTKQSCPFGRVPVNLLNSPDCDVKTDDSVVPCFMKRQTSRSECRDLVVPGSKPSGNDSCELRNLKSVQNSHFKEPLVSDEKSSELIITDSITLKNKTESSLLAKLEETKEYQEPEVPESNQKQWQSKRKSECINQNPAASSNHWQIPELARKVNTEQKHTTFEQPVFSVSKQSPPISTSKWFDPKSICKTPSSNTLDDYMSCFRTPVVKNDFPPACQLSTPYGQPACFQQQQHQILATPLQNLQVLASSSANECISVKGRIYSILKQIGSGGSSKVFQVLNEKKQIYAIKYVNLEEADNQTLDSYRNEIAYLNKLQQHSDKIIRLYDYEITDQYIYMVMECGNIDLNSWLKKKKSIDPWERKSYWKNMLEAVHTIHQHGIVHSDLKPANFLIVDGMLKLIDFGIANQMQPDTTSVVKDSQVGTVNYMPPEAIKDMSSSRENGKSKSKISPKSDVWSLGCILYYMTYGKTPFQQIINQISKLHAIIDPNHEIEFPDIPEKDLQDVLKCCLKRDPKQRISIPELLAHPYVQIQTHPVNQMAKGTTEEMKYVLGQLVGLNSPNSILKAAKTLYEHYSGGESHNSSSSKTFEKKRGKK", "test": "Mps-1 Kinase Assay (TR-FRET)", "format": "biochemical", "settings": "10 μM ATP", "method": "The human kinase Mps-1 phosphorylates a biotinylated substrate peptide. Detection of the phosphorylated product is achieved by time-resolved fluorescence resonance energy transfer (TR-FRET) from Europium-labelled anti-phospho-Serine/Threonine antibody as donor to streptavidin Labelled with cross-linked allophycocyanin (SA-XLent) as acceptor. Compounds are tested for their inhibition of the kinase activity.\nN-terminally GST-tagged human full length recombinant Mps-1 kinase (purchased from Invitrogen, Karslruhe, Germany, cat. no PV4071) was used. As substrate for the kinase reaction a biotinylated peptide of the amino-acid sequence […] (C-terminus in amide form, purchased from Biosynthan GmbH, Berlin) was used.\nThe concentration of Mps-1 in the assay was adjusted to the activity of the enzyme lot and was chosen appropriate to have the assay in the linear range, typical enzyme concentrations were in the range of about 1 nM (final conc. in the 5 μl assay volume).\nThe resulting mixture was incubated 1 h at 22° C. to allow the binding of the phosphorylated peptide to the anti-phospho(Ser/Thr)-Europium-antibody. Subsequently the amount of phosphorylated substrate was evaluated by measurement of the resonance energy transfer from the Europium-labelled anti-phospho(Ser/Thr) antibody to the Streptavidin-XLent."}, "[5]": {"test_system": "rat hepatocytes", "test": "In vitro metabolic stability in rat hepatocytes", "format": "in vitro ADME", "settings": "1 μM test compound, calculated from half-life", "method": "Investigation of In Vitro Metabolic Stability in Rat Hepatocytes (Including Calculation of Hepatic In Vivo Blood Clearance (CL))\nHepatocytes from Han Wistar rats were isolated via a 2-step perfusion method. After perfusion, the liver was carefully removed from the rat: the liver capsule was opened and the hepatocytes were gently shaken out into a Petri dish with ice-cold WME. The resulting cell suspension was filtered through sterile gaze in 50 ml falcon tubes and centrifuged at 50×g for 3 min at room temperature.\nThe cell pellet was resuspended in 30 ml WME and centrifuged through a Percoll® gradient for 2 times at 100×g. The hepatocytes were washed again with Williams' medium E (WME) and resuspended in medium containing 5% FCS. Cell viability was determined by trypan blue exclusion.\nFor the metabolic stability assay liver cells were distributed in WME containing 5% FCS to glass vials at a density of 1.0×10^6 vital cells/m. The test compound was added to a final concentration of 1 μM. During incubation, the hepatocyte suspensions were continuously shaken and aliquots were taken at 2, 8, 16, 30, 45 and 90 min, to which equal volumes of cold methanol were immediately added. Samples were frozen at −20° C. over night, after subsequently centrifuged for 15 minutes at 3000 rpm and the supernatant was analyzed with an Agilent 1200 HPLC-system with LCMS/MS detection.\nThe half-life of a test compound was determined from the concentration-time plot. From the half-life the intrinsic clearances were calculated. Together with the additional parameters liver blood flow, amount of liver cells in vivo and in vitro. The hepatic in vivo blood clearance (CL) and the maximal oral bioavailability (Fmax) was calculated. The following parameter values were used: Liver blood flow—4.2 L/h/kg rat; specific liver weight—32 g/kg rat body weight; liver cells in vivo—1.1×10^8 cells/g liver, liver cells in vitro—0.5×10^6/ml."}, "[6]": {"settings": "Compound A27 2 mg/kg 2QD 2on/5off p.o."}, "[7]": {"settings": "Compound A27 3 mg/kg 2QD 2on/5off p.o."}, "[8]": {"settings": "Paclitaxel 20/15 (d19) mg/kg QD 2on/6off i.v."}, "[9]": {"settings": "Paclitaxel 20/15 (d19) mg/kg QD 2on/6off i.v., relative tumor area at control dosing stop"}},
  "note": "Several values for one entry are separate records, joined by “and”; a condition that tells them apart may be missing. Identical values can stand only once. Like-named read-outs stand apart in the source and are kept apart here. Marks after values point to notes of the source that are not given here.",
  "data": [
    {"smiles": "COc1ccc(Oc2cc(NCCC(F)(F)F)c3ncc(-c4ccc(C(=O)NC5CC5)c(C)c4)n3n2)c(F)c1F", "note": "[Compound A27, N-cyclopropyl-4-{6-(2,3-difluoro-4-methoxyphenoxy)-8-[(3,3,3-trifluoropropyl)amino]imidazo[1,2-b]pyridazin-3-yl}-2-methylbenzamide]", "values": [
      {"measurement": "IC50", "setting": "[1]", "result": "< 1", "unit": "nM"},
      {"measurement": "Fatal Tox", "setting": "[2]; [6]", "result": "0/10"},
      {"measurement": "T/C weight", "setting": "[2]; [6]", "result": 0.98},
      {"measurement": "T/C area", "setting": "[2]; Compound A27 2 mg/kg 2QD 2on/5off p.o., relative tumor area at control dosing stop (15 treatment days)", "result": 1.00},
      {"measurement": "Fatal Tox", "setting": "[2]; [7]", "result": "0/10"},
      {"measurement": "T/C weight", "setting": "[2]; [7]", "result": 0.88},
      {"measurement": "T/C area", "setting": "[2]; Compound A27 3 mg/kg 2QD 2on/5off p.o., relative tumor area at control dosing stop (15 treatment days)", "result": 0.90},
      {"measurement": "Fatal Tox", "setting": "[3]; [6]", "result": "0/10"},
      {"measurement": "T/C weight", "setting": "[3]; [6]", "result": 1.18},
      {"measurement": "T/C area", "setting": "[3]; Compound A27 2 mg/kg 2QD 2on/5off p.o., relative tumor area at control dosing stop (22 treatment days)", "result": "0.99 and 0.98"},
      {"measurement": "Fatal Tox", "setting": "[3]; [7]", "result": "0/10"},
      {"measurement": "T/C weight", "setting": "[3]; [7]", "result": 0.74},
      {"measurement": "T/C area", "setting": "[3]; Compound A27 3 mg/kg 2QD 2on/5off p.o., relative tumor area at control dosing stop (22 treatment days)", "result": 0.64}
    ]},
    {"smiles": "CC(=O)O[C@H]1C(=O)[C@@]2(C)[C@H]([C@H](OC(=O)c3ccccc3)[C@]3(O)C[C@H](OC(=O)[C@H](O)[C@@H](NC(=O)c4ccccc4)c4ccccc4)C(C)=C1C3(C)C)[C@]1(OC(C)=O)CO[C@@H]1C[C@@H]2O", "note": "[Paclitaxel, (2α,4α,5β,7β,10β,13α)-4,10-bis(acetyloxy)-13-{[(2R,3S)-3-(benzoylamino)-2-hydroxy-3-phenylpropanoyl]oxy}-1,7-dihydroxy-9-oxo-5,20-epoxytax-11-en-2-yl benzoate, reference compound]", "values": [
      {"measurement": "Fatal Tox", "setting": "[2]; [8]", "result": "0/10"},
      {"measurement": "T/C area", "setting": "[2]; [9]", "result": "0.06^#"},
      {"measurement": "Max. Body weight loss", "setting": "[2]; mouse, in vivo, iv", "result": "−0.7", "unit": "%"},
      {"measurement": "Fatal Tox", "setting": "[3]; [8]", "result": "0/10"},
      {"measurement": "T/C area", "setting": "[3]; [9]", "result": "0.13^#"},
      {"measurement": "T/C area", "setting": "[3]; Paclitaxel 20/15 (d19) mg/kg QD 2on/6off i.v., relative tumor area at control dosing stop, listed as paclitaxel", "result": 0.13},
      {"measurement": "Max. Body weight loss", "setting": "[3]; mouse, in vivo, iv", "result": "−1.9", "unit": "%"}
    ]},
    {"smiles": "C=C(c1cccc(F)c1)c1cc(NCCC(F)(F)F)c2ncc(-c3ccc(C(=O)NC4CC4)c(C)c3)n2n1", "note": "[Compound A24, N-cyclopropyl-4-{6-[1-(3-fluorophenyl)ethenyl]-8-[(3,3,3-trifluoropropyl)amino]imidazo[1,2-b]pyridazin-3-yl}-2-methylbenzamide]", "values": [
      {"measurement": "IC50", "setting": "[4]", "result": 0.3, "unit": "nM"},
      {"measurement": "Fmax (maximal oral bioavailability)", "setting": "[5]", "result": 48, "unit": "%"}
    ]},
    {"smiles": "COc1cccc(C(=O)c2cc(NCCC(F)(F)F)c3ncc(-c4ccc(C(=O)NC5CC5)c(C)c4)n3n2)c1", "note": "[Compound A7, N-Cyclopropyl-4-{6-(3-methoxybenzoyl)-8-[(3,3,3-trifluoropropyl)amino]imidazo[1,2-b]pyridazin-3-yl}-2-methylbenzamide]", "values": [
      {"measurement": "IC50", "setting": "[4]", "result": 0.5, "unit": "nM"},
      {"measurement": "Fmax (maximal oral bioavailability)", "setting": "[5]", "result": 26, "unit": "%"}
    ]}
  ]
}
